# How the values were obtained:
# [1] = system: HeLa; assay: Antiproliferative activity against human HeLa cells by MTS assay; format: functional, cell-based
# [2] = target: T1, Serine/threonine-protein kinase Chk1 (Homo sapiens, UniProt O14757); assay: Inhibition of Chk1 enzyme by radiometric assay
# T1 sequence (O14757 whole entry): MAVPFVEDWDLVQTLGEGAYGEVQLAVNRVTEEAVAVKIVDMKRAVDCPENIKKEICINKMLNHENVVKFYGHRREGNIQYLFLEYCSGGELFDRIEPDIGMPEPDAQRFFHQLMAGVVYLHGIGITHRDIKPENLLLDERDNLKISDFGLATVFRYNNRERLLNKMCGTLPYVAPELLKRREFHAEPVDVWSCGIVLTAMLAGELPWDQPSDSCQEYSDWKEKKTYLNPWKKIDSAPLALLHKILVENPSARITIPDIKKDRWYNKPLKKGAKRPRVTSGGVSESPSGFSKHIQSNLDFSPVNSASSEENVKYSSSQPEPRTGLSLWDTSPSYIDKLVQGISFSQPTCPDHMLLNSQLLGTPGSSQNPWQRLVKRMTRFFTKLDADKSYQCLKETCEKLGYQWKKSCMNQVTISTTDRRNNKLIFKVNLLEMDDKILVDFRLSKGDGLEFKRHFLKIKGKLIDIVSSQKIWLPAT
# [3] = system: NCI-H1299; assay: Cell cycle arrest in human NCI-H1299 cells assessed as accumulation at G2/M phase by FACS; format: functional, cell-based
Structure (SMILES),EC50 [1] [nM],IC50 [2] [nM],EC50 [3] [nM],IC50 [3] [nM]
N#Cc1ncc2nc1OC/C=C\COc1ccc(OCCCN3CCOCC3)cc1NC(=O)N2,> 59300,4,,
CCOc1ccc2c(c1)NC(=O)Nc1cnc(C#N)c(n1)OCCCCCO2,> 59300,55,> 10000,
N#Cc1ncc2nc1OC/C=C\COc1ccc(OCCCCN3CCOCC3)cc1NC(=O)N2,7560,4,,
CCOc1ccc(OCC)c(NC(=O)Nc2cnc(C#N)cn2)c1,,31,,
N#Cc1ncc2nc1OCC/C=C\COc1ccc(OCCCCCN3CCOCC3)cc1NC(=O)N2,5270,5,> 10000,
Cc1ccc2c(c1)NC(=O)Nc1cnc(C#N)c(n1)OCCCCCO2,,8,,
N#Cc1ncc2nc1OCCCCOc1ccc(OCCCCN3CCOCC3)cc1NC(=O)N2,> 59300,4,,
N#Cc1ncc2nc1OCCCCCOc1ccc(CCCO)cc1NC(=O)N2,> 59300,24,> 10000,
CC(=O)Nc1ccc2c(c1)NC(=O)Nc1cnc(C#N)c(n1)OCCCCCO2,,8,,
N#Cc1ncc2nc1OCC/C=C\COc1ccccc1NC(=O)N2,40000,12,> 10000,
N#Cc1ncc2nc1OCCCCCOc1ccc(CCO)cc1NC(=O)N2,> 59300,39,> 10000,
N#Cc1ncc2nc1OCC/C=C\COc1ccc(Cl)cc1NC(=O)N2,11900,10,> 10000,
N#Cc1ncc2nc1OCC/C=C\COc1ccc(OCCCCN3CCOCC3)cc1NC(=O)N2,,6,,
N#Cc1ncc2nc1OCCCCCOc1ccc(Br)cc1NC(=O)N2,52800,12,> 10000,
N#Cc1ncc2nc1OCCCCCOc1ccc(OCCCCCN3CCOCC3)cc1NC(=O)N2,8870,3,> 10000,
N#Cc1ncc2nc1OCCCCCOc1ccccc1NC(=O)N2,> 59300,16,> 10000,
N#Cc1ncc2nc1OCC/C=C\COc1ccc(OCCOC3CCCCO3)cc1NC(=O)N2 (stereo not drawn),30900,19,> 10000,
N#Cc1ncc2nc1OCCCCCOc1ccc(OCCCCN3CCOCC3)cc1NC(=O)N2,,3,,
COc1ccc2c(c1)NC(=O)Nc1cnc(C#N)c(n1)OCC/C=C\CO2,> 59300,37,> 10000,
N#Cc1ncc2nc1OCCCCCOc1ccc(OCCCN3CCOCC3)cc1NC(=O)N2,4030,7,> 10000,
COc1ccc2c(c1)NC(=O)Nc1cnc(C#N)c(n1)OCCCCCO2,> 59300,25,> 10000,

Structure (SMILES),EC50 [1] [nM],IC50 [2] [nM],EC50 [3] [nM],IC50 [3] [nM]
N#Cc1ncc2nc1OC/C=C\COc1ccc(OCCCCCN3CCCOC3)cc1NC(=O)N2,> 59300,2,,
CCOc1ccc2c(c1)NC(=O)Nc1cnc(C#N)c(n1)OCC/C=C\CO2,> 59300,19,> 10000,
N#Cc1ncc2nc1OCC/C=C\COc1ccc(CCCO)cc1NC(=O)N2,> 59300,69,> 10000,
N#Cc1ncc2nc1OCC/C=C\COc1ccc(Br)cc1NC(=O)N2,29400,12,> 10000,
N#Cc1ncc2nc1OCC/C=C\COc1ccc(O)cc1NC(=O)N2,> 59300,34,> 10000,
N#Cc1ncc2nc1OCCCCCOc1ccc(Cl)cc1NC(=O)N2,57600,11,> 10000,
N#Cc1ncc2nc1OCC/C=C\COc1ccc(OCCO)cc1NC(=O)N2,> 59300,13,> 10000,
N#Cc1ncc2nc1OCC/C=C\COc1ccc(CCCOC3CCCCO3)cc1NC(=O)N2 (stereo not drawn),> 59300,91,> 10000,
N#Cc1ncc2nc1OCC/C=C\COc1ccc(CCOC3CCCCO3)cc1NC(=O)N2 (stereo not drawn),,108,> 10000,
N#Cc1ncc2nc1OCC/C=C\COc1ccc(OCCCN3CCOCC3)cc1NC(=O)N2,> 59300,5,> 10000,
N#Cc1ncc2nc1OCCCCOc1ccc(OCCCN3CCOCC3)cc1NC(=O)N2,> 59300,2,,
N#Cc1ncc2nc1OC/C=C\COc1ccc(Cl)cc1NC(=O)N2,> 59300,5,> 10000,
N#Cc1ncc2nc1OCC/C=C\COc1ccc(CCO)cc1NC(=O)N2,,97,> 10000,
N#Cc1ncc2nc1OCCCCCOc1ccc(OCCO)cc1NC(=O)N2,> 59300,11,> 10000,
N#Cc1ncc2nc1OCCCCOc1ccc(Cl)cc1NC(=O)N2,> 59300,,> 10000,
CC(C)(C)[Si](Oc1ccc2c(c1)NC(=O)Nc1cnc(C#N)c(n1)OCC/C=C\CO2)(c1ccccc1)c1ccccc1,,> 10000,,
COc1ccc(NC(C)=O)cc1NC(=O)Nc1cnc(C#N)cn1,,22,,
N#Cc1ncc2nc1OCCCCOc1ccc(OCCCCCN3CCCOC3)cc1NC(=O)N2,> 59300,3,,
CN(C)CCOc1ccc2c(c1)NC(=O)Nc1cnc(C#N)c(n1)OCC/C=C\CO2,30400,15,> 10000,
Cc1ccc2c(c1)NC(=O)Nc1cnc(C#N)c(n1)OCC/C=C\CO2,> 59300,15,> 10000,
CC(=O)Nc1ccc2c(c1)NC(=O)Nc1cnc(C#N)c(n1)OCC/C=C\CO2,39900,16,,> 10000
